{"source": "ChEMBL document CHEMBL1136484", "about": "“3D-QSAR studies on natural acetylcholinesterase inhibitors of Sarcococca saligna by comparative molecular field analysis (CoMFA)” (Bioorg Med Chem Lett, 2003)"}
{"biological_target": "Acetylcholinesterase (Homo sapiens, UniProt P22303)", "sequence (P22303 whole entry)": "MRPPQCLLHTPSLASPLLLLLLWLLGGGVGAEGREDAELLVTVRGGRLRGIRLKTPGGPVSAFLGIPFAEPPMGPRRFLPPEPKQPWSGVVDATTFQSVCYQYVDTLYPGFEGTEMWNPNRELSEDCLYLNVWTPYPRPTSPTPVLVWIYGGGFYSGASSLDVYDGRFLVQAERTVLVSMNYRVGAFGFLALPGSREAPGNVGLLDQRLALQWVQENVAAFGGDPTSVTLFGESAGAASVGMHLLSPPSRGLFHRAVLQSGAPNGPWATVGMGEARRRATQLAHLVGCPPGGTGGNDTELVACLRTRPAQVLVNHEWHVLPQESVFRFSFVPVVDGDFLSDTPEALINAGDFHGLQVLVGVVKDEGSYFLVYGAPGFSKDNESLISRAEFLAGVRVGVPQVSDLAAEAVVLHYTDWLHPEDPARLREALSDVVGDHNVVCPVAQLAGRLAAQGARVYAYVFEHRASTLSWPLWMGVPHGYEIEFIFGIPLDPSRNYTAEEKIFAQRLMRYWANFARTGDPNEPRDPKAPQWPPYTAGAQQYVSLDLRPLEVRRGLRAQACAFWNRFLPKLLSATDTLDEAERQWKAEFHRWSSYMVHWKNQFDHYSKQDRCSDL", "assay": "Compound was tested for the in silico inhibition of acetylcholinesterase", "units": {"IC50": "µM"}}
{"smiles": "C/C=C(\\C)C(=O)N[C@@H]1[C@H](OC(C)=O)[C@@H]2CC[C@H]3C4=CC[C@H]([C@H](C)N(C)C)[C@@]4(C)CC[C@@H]3[C@@]2(C)C[C@@H]1O", "IC50": 61.7}
{"smiles": "C/C=C(\\C)C(=O)N[C@H]1CC[C@@]2(C)C(=CC[C@H]3C4=CC[C@H]([C@H](C)N(C)C)[C@@]4(C)CC[C@@H]32)C1=O", "IC50": 5.75}
{"smiles": "CC(=O)N(C)[C@@H](C)[C@H]1CC[C@H]2[C@@H]3CC=C4C[C@@H](N(C)C)CC[C@]4(C)[C@H]3CC[C@]12C", "IC50": 20}
{"smiles": "CO[C@@H]1CC2=CC[C@@H]3[C@H](CC[C@]4(C)C([C@H](C)N(C)C)=CC[C@@H]34)[C@@]2(C)C[C@@H]1O", "IC50": 251}
{"smiles": "C/C=C(\\C)C(=O)N[C@@H]1[C@H](O)C2CC[C@H]3C4=CC[C@H]([C@H](C)N(C)C)[C@@]4(C)CC[C@@H]3[C@@]2(C)C[C@@H]1O", "note": "(stereo not given in full)", "IC50": 33.1}
{"smiles": "C/C=C(\\C)C(=O)N[C@H]1CC[C@@]2(C)C(=CC[C@H]3[C@@H]4CC[C@H]([C@H](C)N(C)C)[C@@]4(C)CC[C@@H]32)C1=O", "IC50": 7.08}
{"smiles": "CN[C@H]1CC[C@@]2(C)[C@@H](CC[C@@H]3[C@@H]2CC[C@]2(C)C([C@H](C)N(C)C)=CC[C@@H]32)C1", "IC50": 20.4}
{"smiles": "CC(=O)N[C@H]1CC[C@@]2(C)[C@@H](CC[C@@H]3[C@@H]2CC[C@]2(C)[C@@H]([C@H](C)N(C)C)CC[C@@H]32)C1", "IC50": 69.2}
{"smiles": "C/C=C(\\C)C(=O)NC1=CC[C@@]2(C)[C@@H](CC[C@H]3C4CC[C@H]([C@H](C)N(C)C)[C@@]4(C)CC[C@@H]32)C1=O", "note": "(stereo not given in full)", "IC50": 13.8}
{"smiles": "CC(=O)O[C@H]1[C@@H](NC(=O)c2ccccc2)[C@@H](O)C[C@]2(C)[C@H]3CC[C@]4(C)[C@@H]([C@H](C)N(C)C)CC[C@H]4[C@@H]3CC[C@@H]12", "IC50": 229}
{"smiles": "CC(=O)N(C)[C@H]1CC[C@@]2(C)[C@@H](CC[C@@H]3[C@@H]2CC[C@]2(C)[C@@H]([C@H](C)N(C)C)CC[C@@H]32)C1", "IC50": 70.8}
{"smiles": "C[C@H](NC=O)[C@H]1CC[C@H]2[C@@H]3CC[C@H]4C[C@@H](N(C)C)CC[C@]4(C)[C@H]3CC[C@]12C", "IC50": 6.46}
{"smiles": "C/C(=C\\C(=O)N(C)[C@H]1CC[C@@]2(C)[C@@H](CC[C@@H]3[C@@H]2CC[C@]2(C)[C@@H]([C@H](C)N(C)C)CC[C@@H]32)C1)C(C)C", "IC50": 6.46}
{"smiles": "C/C=C(\\C)C(=O)N[C@@H]1[C@H](OC(C)=O)[C@@H]2CC[C@@H]3[C@H](CC[C@]4(C)[C@@H]([C@H](C)N(C)C)CC[C@@H]34)[C@@]2(C)C[C@@H]1O", "IC50": 182}
{"smiles": "C/C=C(\\C)C(=O)N[C@@H]1C=C2CC[C@H]3C4=CC[C@H]([C@H](C)N(C)C)[C@@]4(C)CC[C@@H]3[C@@]2(C)CC1", "IC50": 7.76}
{"smiles": "C[C@@H]([C@H]1CC[C@H]2[C@@H]3CC[C@H]4C(=O)C(NC(=O)c5ccccc5)=CC[C@]4(C)[C@H]3CC[C@]12C)N(C)C", "IC50": 5.25}
{"smiles": "CC(=O)N(C)[C@@H](C)[C@H]1CC[C@H]2[C@@H]3CC[C@H]4C[C@@H](N(C)C)CC[C@]4(C)[C@H]3CC[C@]12C", "IC50": 50.1}
{"smiles": "CN[C@H]1CC[C@@]2(C)C(CC[C@H]3[C@@H]4CC[C@H]([C@H](C)N(C)C)[C@@]4(C)CC[C@@H]32)C1", "note": "(stereo not given in full)", "IC50": 6.17}
{"smiles": "C[C@@H]([C@H]1CC[C@H]2[C@@H]3CC[C@H]4C[C@@H](NC(=O)c5ccccc5)CC[C@]4(C)[C@H]3CC[C@]12C)N(C)C", "note": "[EPIPACHYSAMINE D]", "IC50": 28.8}
{"smiles": "C/C(=C\\C(=O)N(C)[C@H]1CC[C@@]2(C)[C@@H](CC[C@@H]3[C@@H]2CC[C@]2(C)C([C@H](C)N(C)C)=CC[C@@H]32)C1)C(C)C", "IC50": 6.17}
{"smiles": "C[C@@H]([C@H]1CC[C@H]2[C@@H]3CC=C4C[C@@H](N(C)C)CC[C@]4(C)[C@H]3CC[C@]12C)N(C)C", "IC50": 39.8}
{"smiles": "CO[C@H]1CC[C@@]2(C)C(=CC[C@@H]3[C@@H]2CC[C@]2(C)C([C@H](C)N(C)C=O)=CC[C@@H]32)C1", "IC50": 49}
{"smiles": "C/C=C(\\C)C(=O)N[C@H]1CC[C@@]2(C)C(=CC[C@H]3[C@@H]4CC[C@H]([C@H](C)N(C)C)[C@@]4(C)CC[C@@H]32)[C@H]1O", "IC50": 30.2}
{"smiles": "C[C@@H]([C@H]1CC[C@H]2[C@@H]3CC[C@H]4C[C@@H](N(C)C(=O)/C=C/c5ccccc5)CC[C@]4(C)[C@H]3CC[C@]12C)N(C)C", "note": "[SALIGCINNAMIDE]", "IC50": 19.5}
{"smiles": "CO[C@H]1CC[C@@]2(C)C(=CC[C@H]3[C@@H]4CC[C@H]([C@H](C)N(C)C)[C@@]4(C)CC[C@@H]32)C1", "IC50": 42.7}
{"smiles": "CN[C@@H](C)C1=CC[C@H]2[C@@H]3CC=C4C[C@@H](OC)CC[C@]4(C)[C@H]3CC[C@]12C", "IC50": 83.2}
{"smiles": "C[C@@H]([C@H]1CC[C@H]2[C@@H]3CC[C@H]4C[C@@H](NC(=O)c5ccccc5)[C@@H](O)C[C@]4(C)[C@H]3CC[C@]12C)N(C)C", "IC50": 77.6}
{"smiles": "CC(=O)O[C@@H]1C2CC[C@H]3C4CC=C([C@H](C)N(C)C)[C@@]4(C)CC[C@@H]3[C@@]2(C)CC[C@@H]1NC(=O)C=C(C)C", "note": "(stereo not given in full)", "IC50": 5.25}
{"smiles": "C/C=C(\\C)C(=O)N[C@@H]1C=C2CC[C@H]3[C@@H]4CC[C@H]([C@H](C)N(C)C)[C@@]4(C)CC[C@@H]3[C@@]2(C)C[C@@H]1O", "IC50": 15.8}
{"smiles": "C/C=C(\\C)C(=O)N[C@H]1C(OC(C)=O)C[C@@]2(C)C(CC[C@H]3C4CC=C([C@H](C)N(C)C)[C@@]4(C)CC[C@@H]32)[C@H]1OC(C)=O", "note": "(stereo not given in full)", "IC50": 50.1}
